{"source": "patent US12090166B2", "about": "“Pharmaceutical composition for preventing or treating dentin-dental pulp disease or periodontal disease, containing LPAR2 inhibitor” (PUSAN NATIONAL UNIVERSITY INDUSTRY-UNIVERSITY COOPERATION …, priority 2018, dated 2024)", "key": {"[1]": {"tested_on": "human-derived dental pulp stem cells", "experiment": "Cell viability measurement (MTT method)", "format": "cell-based", "conditions": "24 hours; for proliferation of human-derived dental pulp stem cells (cell viability, MTT): expansion medium, vs control", "description": "Cell viability measurement was evaluated by the 3-(4,5-dimethylthiazol-2-yl)-2,5-diphenyl-2H-tetrazolium bromide (MTT) method. Human-derived dental pulp stem cells were coated with 0.2% gelatin one day before culture. On the day of incubation, 0.2% gelatin was removed from the 48-well plate and washed once with PBS. In 48-well plates, human-derived dental pulp stem cells (4×10^5 cells/ml) were cultured in Miltenyi Stem MACS MSC Expansion Media Kit XF medium containing 100 μg/ml streptomycin and 100 μg/ml penicillin. Beck 35 was evaluated at various concentrations (0, 0.1, 1 and 1.0 μg/ml) for 24 hours at 37° C. in an atmosphere of 5% CO2 and 95% humidity. Then, the cells were incubated with 0.5 mg/ml MTT (SIGMA, USA) for 3 hours, and the reaction was stopped by adding dimethyl sulfoxide (DMSO, JUNSEL, Japan). Results were obtained at 560 nm using an ELISA reader. The cell viability of the control cells was used as a 100% control value.\nIn addition, human-derived dental pulp stem cells were cultured in bone differentiation inducing medium (10% fetal bovine serum, […] dexamethasone, 10 mM β-glycerophosphate and 50 mM ascorbic acid) for 24 hours to induce the differentiation and various concentrations (1, 5 and 1.0 μM/ml) of Beck 35 were treated during differentiation."}, "[2]": {"tested_on": "human-derived dental pulp stem cells", "experiment": "Real-time PCR analysis of differentiation genes", "format": "cell-based", "conditions": "1 μM once every 3 days, 7 days in bone differentiation medium", "description": "As in Example 2-2, human-derived dental pulp stem cells were differentiated for 7 days, 14 days and 21 days in a bone differentiation induction culture medium. Beck 35 was added to the bone differentiation medium at a concentration of 1 μM once every 3 days to differentiate for a week. Those maintained with the human-derived dental pulp stem cells, induced differentiation for 7 days, 14 days and 21 days with bone differentiation medium, and induced differentiation for 7 days in bone differentiation medium containing Beck 35 was used to isolate total RNA with Trisure (Bioline, UK) and reverse transcription to cDNA was performed using HelixCript™ Thermo Reverse Transcriptase (NanoHelix, Korea, Daejeon, Korea). The synthesized cDNA was performed using the primers of Table 1 and Power SYBR Green PCR Master Mix. The data analysis was determined using the delta Ct method."}, "tooth germ mesenchyme": {"tested_on": "tooth germ mesenchyme", "experiment": "Real-time PCR analysis of in vitro cultured tooth germ mesenchyme", "format": "cell-based, mouse", "conditions": "24 hours, 5 μM, vs control group", "description": "(§1) Experimental animals were carried out using mouse ICR-based male 8 week-old mice. After anesthesia is performed by administering intraperitoneally Zoletil (Virbac, Carros, France) and Rompun (Bayer, Berlin, Germany), which are anesthetic inducing agents according to the weight, an experiment was conducted to expose the pulp cavity for the maxillary right first molars. To confirm the change in gene expression, an experiment was conducted on the developing 14th day pregnant embryo. ICR-based female mice whose pregnancy was confirmed were sacrificed in the morning of the 14th day after pregnancy, and then embryos were obtained and the tooth germ of the lower jaw was finely dissected under a stereoscopic microscope, and the tooth germ tissue was placed on the lid of a 35 mm diameter Petri dish for experimentation together with the culture solution and cultured in a 5% carbon dioxide incubator at 37° C. for 24 hours with or without Beck 35 drug administration.\nIn order to confirm the change in gene expression by Beck 35 drugs, in vitro culture was performed by microdissecting the tooth germ at the 14th day of the embryonic period, and the group treated with the drug for 24 hours was set as the experimental group, and the untreated tissue was set as the control group, and changes in gene expression were confirmed by real-time PCR analysis. After RNA was obtained from the cultured tissue, the first strand cDNA was synthesized and the expression level was confirmed by real-time PCR for genes known to be important for dentin formation until now."}, "[3]": {"tested_on": "dental papilla mesenchyme", "experiment": "Real-time PCR analysis of in vitro cultured dental papilla mesenchyme", "format": "cell-based, mouse", "conditions": "24 hours, vs control group", "description": "as §1\nIn order to confirm the change in gene expression by Beck 35 drugs, in vitro culture was performed by microdissecting the tooth germ at the 14th day of the embryonic period, and the group treated with the drug for 24 hours was set as the experimental group, and the untreated tissue was set as the control group, and changes in gene expression were confirmed by real-time PCR analysis. […]"}, "[4]": {"tested_on": "human-derived dental pulp stem cells", "experiment": "Electron microscope analysis after bone differentiation", "format": "cell-based", "conditions": "bone differentiation medium with vs without Beck 35", "description": "As in Example 2-2, human-derived dental pulp stem cells were cultured in a culture medium for inducing bone differentiation with or without Beck 35, an inhibitor of LPAR2, to induce bone differentiation, and then observed by an electron microscope."}, "[5]": {"tested_on": "human-derived dental pulp stem cells", "experiment": "Extracellular matrix calcification by Alizarin Red S staining during bone differentiation", "format": "cell-based", "conditions": "for calcification (Alizarin Red S staining): 0, 1, 5 and 1.0 μM/ml in bone differentiation induction medium", "description": "Human-derived dental pulp stem cells (4×10^5 cells/ml) were cultured in Miltenyi Stem MACS MSC Expansion Media Kit XF medium containing 100 μg/ml streptomycin and 100 μg/ml penicillin, followed by culturing in bone differentiation induction medium (10% fetal bovine serum, […] dexamethasone, 10 mM β-glycerophosphate, and 50 mM ascorbic acid). Beck 35 (LPAR2 inhibitor) and LPA were added to the bone differentiation induction medium at various concentrations (0, 1, 5 and 1.0 μM/ml). […] In order to quantify the degree of staining, the absorbance was measured at 562 nm after dissolving in 10% (WN) cetylpyridinium chloride and 10 mM sodium phosphate (pH 7.0) solution.\nHuman-derived dental pulp stem cells (4×10^5 cells/ml) were cultured in Miltenyi Stem MACS MSC Expansion Media Kit XF medium containing 100 μg/ml streptomycin and 100 μg/ml penicillin, and differentiation was induced for 14 days by changing to the bone differentiation induction medium. To the bone differentiation induction medium, RP10-83, an agonist of LPAR2 and H2L5186303, an antagonist of LPAR2 were added at various concentrations (0, 1, and 10 μM/ml). The cells in which bone differentiation was induced were washed twice with PBS, fixed with 70% ethanol at 4° C. for 1 hour, stained with 40 mM Alizarin Red S (pH 4.2, Sigma Co.) solution for 10 minutes, and then washed with distilled water sufficiently. In order to quantify the degree of staining, the absorbance was measured at 562 nm after dissolving in a 10% (WN) cetylpyridinium chloride and 10 mM sodium phosphate (pH 7.0) solution.\nHuman-derived dental pulp stem cells (4×10^5 cells/ml) were cultured in a growth medium without antibiotics. 50 nM of LPAR2 si-RNA was transfected using jetPRIME (Polyplus Transfection) according to the manufacturers protocol. As a control, non-targeting siRNA (SEQ ID NO: 1: […]) was transfected. The differentiation of the cells was induced for 7 days after changing to bone differentiation induction medium. […]"}, "[6]": {"tested_on": "exposed pulp cavity of mouse molars", "experiment": "Pulp cavity exposure animal model (H&E, MTC, micro-CT, immunohistochemistry)", "format": "in vivo", "description": "as §1, with “After” for “Experimental animals were carried out using mouse ICR-based male 8 week-old mice. After”\nIn order to prepare tissue sections, mice were sacrificed after a certain experimental period in the experimental group and the control group, fixed in 4% paraformaldehyde, washed with phosphate buffer solution, and demineralized in 0.1 M EDTA chelate solution. Demineralization proceeded for 4 weeks, and after demineralization, it was embedded in wax, cut to a thickness of 7 micrometers, and smeared on a glass slide to perform conventional hematoxylin and eosin staining.\nMTC staining was performed to confirm the synthesis of collagen protein and formation of mineralized tissue. After staining the nucleus with hematoxylin for the tissue on the glass slide produced through the normal tissue sectioning process and if the entire tissue is stained with a mixed dyeing solution designed to perform cytoplasmic staining with biebrich scarlet and muscle fibers staining with acid fuchsin, all of collagen fibers, muscle fibers and cytoplasm can be observed by staining red.\nMicrocomputerized tomography was performed to confirm the hard tissue regenerated by the drug. The lower jaw tissue fixed in 4% paraformaldehyde was observed using Skyscan1272 (Bruker, Kontich, Belgium), and 2 micrometers pixels were photographed at 4904×3280 resolution for the entire 360 degree, and the image was reconstructed in 3D with a data viewer and then the degree of hard tissue formation was objectively analyzed by analyzing with the CTAn (Bruker) program.\nWhile observing the oral cavity of anesthetized mice under a stereoscopic microscope, a pulp cavity exposure experiment was performed on the upper right first molar, and the left upper first molar was used as a untreated control. While observing with a stereoscopic microscope, using a round burr having 0.6 mm diameter connected to a high-speed handpiece, the enamel and dentin was exposed to be perpendicular to the occlusal surface, and when necessary, water was sprayed to minimize tissue damage. Afterwards, the Beck 35 drug was mounted on Pluronic F127 and delivered to the exposed pulp cavity. Only Pluronic F127 was delivered to confirm as a control. After the delivery of the Beck 35 drug to the pulp cavity, the doubly exposed pulp cavity was covered with Dycal (Dentsply Caulk, Milford, DE) and a […] composite resin. Thereafter, on the 3rd, 5th and 42nd days, the changes were confirmed by histological and microcomputed tomography techniques.\nTo confirm the expression of the protein, the expression pattern of NESTIN, a protein specific for odontoblasts, was confirmed by immunohistochemistry using tissue sections from the control and treatment groups. The expression of the protein was confirmed based on the antigen-antibody reaction, and the positive reaction of the protein was confirmed as brown with 3,3′-diaminobenzidine."}, "[7]": {"conditions": "after 3 and 5 days, vs control group"}, "[8]": {"conditions": "after 42 days, vs control group"}}, "note": "“Also recorded” adds a separate entry of the source.", "data": [{"compound": "Cc1csc2c(N[C@@H](C)CN3CCN(S(=O)(=O)c4ccc(Cl)c(Cl)c4)CC3)ncnc12", "note": "[Beck 35]", "values": [{"measurement": "proliferation of human-derived dental pulp stem cells (cell viability, MTT)", "setting": "[1]; 10 μM/ml", "value": "promoted the proliferation"}, {"measurement": "proliferation of human-derived dental pulp stem cells (cell viability, MTT)", "setting": "[1]; 0.1 and 1 μM/ml", "value": "not different from the control"}, {"measurement": "proliferation of human dental pulp stem cells during differentiation", "setting": "[1]; 1, 5 and 1.0 μM/ml, bone differentiation inducing medium", "value": "inhibited the proliferation"}, {"measurement": "expression level of DMP-1 (dentin matrix protein 1)", "setting": "[2]", "value": "Increased"}, {"measurement": "expression level of DSPP (dentin sialophosphoprotein)", "setting": "[2]", "value": "Increased"}, {"measurement": "expression level of Runx2 (runt-related transcription factor 2)", "setting": "[2]", "value": "Increased"}, {"measurement": "expression level of osteopontin", "setting": "[2]", "value": "Increased"}, {"measurement": "expression of Axin2 (Wnt signaling)", "setting": "tooth germ mesenchyme", "value": "reduced"}, {"measurement": "expression of Bmp2", "setting": "tooth germ mesenchyme", "value": "reduced"}, {"measurement": "expression of Bmp4", "setting": "tooth germ mesenchyme", "value": "reduced"}, {"measurement": "expression of Bmp6", "setting": "tooth germ mesenchyme", "value": "reduced"}, {"measurement": "expression of Bmp7", "setting": "tooth germ mesenchyme", "value": "reduced"}, {"measurement": "expression of Lef1 (Wnt signaling)", "setting": "tooth germ mesenchyme", "value": "reduced"}, {"measurement": "expression of beta-Catenin (Wnt signaling)", "setting": "tooth germ mesenchyme", "value": "reduced"}, {"measurement": "expression of Bmp6", "setting": "[3]", "value": "increased"}, {"measurement": "overall gene expression", "setting": "[3]", "value": "overall gene expression increased"}, {"measurement": "cell morphology by electron microscope", "setting": "[4]", "value": "relatively long-shaped cells"}, {"measurement": "calcification (Alizarin Red S staining)", "setting": "[5]", "value": "promoted the calcification in a concentration-dependent manner"}, {"measurement": "blood vessel distribution (MTC staining)", "setting": "[6]; 3 and 5 days later", "value": "same blood vessel distribution as the HE staining result"}, {"measurement": "number of cells in which the inflammatory cells and the nucleus were thickly condensed (MTC staining)", "setting": "[6]; 3 and 5 days later", "value": "small"}, {"measurement": "dentin bridge formation (micro-CT)", "setting": "[6]; 42 days after pulp cavity exposure, vs control group", "value": "dentin bridge was formed; also recorded: perfect dentin bridge was regenerated"}, {"measurement": "dentin regeneration, morphological", "setting": "[6]; Beck 35 5 μM in exposed pulp cavity, maxillary molar of 8-week-old B6 mice", "value": "perfectly formed dentin bridge"}, {"measurement": "NESTIN expression in pulp cavity periphery (immunohistochemistry)", "setting": "[6]; [7]", "value": "more positive reactions"}, {"measurement": "RUNX2 expression in pulp cavity periphery (immunohistochemistry)", "setting": "[6]; [7]", "value": "more positive reactions"}, {"measurement": "blood vessels in pulp cavity (H&E)", "setting": "[6]; [7]", "value": "more tissues were observed as blood vessels"}, {"measurement": "staining of cell nuclei in the pulp cavity (H&E)", "setting": "[6]; [7]", "value": "stained lighter than the control group"}, {"measurement": "formation of calcified dentin bridge (MTC staining)", "setting": "[6]; [8]", "value": "formation of calcified dentin bridge was confirmed"}, {"measurement": "formation of dentin bridge (H&E)", "setting": "[6]; [8]", "value": "formation of dentin bridge was clearly observed"}, {"measurement": "new collagen fibers in pulp cavity (HE and MTC staining)", "setting": "[6]; after treating exposed pulp cavity", "value": "new collagen fibers seen as pulp cavity internal tissue were confirmed"}, {"measurement": "number of inflammatory cells (H&E)", "setting": "[6]; treatment group vs control group", "value": "in the control group, the number of inflammatory cells was observed higher than that of the treatment group"}, {"measurement": "staining of enamel matrix", "setting": "[6]; vs control group (dispersed and pale dyed)", "value": "dyed dark red"}]}, {"compound": "O=C(O)/C=C\\C(=O)Nc1ccc(Oc2cccc(Oc3ccc(NC(=O)/C=C\\C(=O)O)cc3)c2)cc1", "note": "[H2L5186303]", "values": [{"measurement": "bone differentiation (Alizarin Red S staining)", "setting": "[5]; 0, 1, and 10 μM/ml, differentiation induced for 14 days", "value": "promoted bone differentiation"}]}, {"compound": "lysophosphatidic acid [LPA]", "values": [{"measurement": "calcification (Alizarin Red S staining)", "setting": "[5]", "value": "did not undergo the calcification"}]}]}
